Reference: US10683297B2 (Sunshine Lake Pharma Co., Ltd., priority 2017, dated 2020)

How the values were obtained:
Type in all cases: biochemical
JAK3 (h) = molecular target: T1, JAK3 (h) (Homo sapiens, UniProt P52333); test: JAK3 (h) kinase assay; details: [γ-33P-ATP] 10 μM or KM values; 40 minutes at room temperature
T1 construct: purchased Millipore UK Ltd (assays performed there as a service)
T1 sequence (P52333 1-1124): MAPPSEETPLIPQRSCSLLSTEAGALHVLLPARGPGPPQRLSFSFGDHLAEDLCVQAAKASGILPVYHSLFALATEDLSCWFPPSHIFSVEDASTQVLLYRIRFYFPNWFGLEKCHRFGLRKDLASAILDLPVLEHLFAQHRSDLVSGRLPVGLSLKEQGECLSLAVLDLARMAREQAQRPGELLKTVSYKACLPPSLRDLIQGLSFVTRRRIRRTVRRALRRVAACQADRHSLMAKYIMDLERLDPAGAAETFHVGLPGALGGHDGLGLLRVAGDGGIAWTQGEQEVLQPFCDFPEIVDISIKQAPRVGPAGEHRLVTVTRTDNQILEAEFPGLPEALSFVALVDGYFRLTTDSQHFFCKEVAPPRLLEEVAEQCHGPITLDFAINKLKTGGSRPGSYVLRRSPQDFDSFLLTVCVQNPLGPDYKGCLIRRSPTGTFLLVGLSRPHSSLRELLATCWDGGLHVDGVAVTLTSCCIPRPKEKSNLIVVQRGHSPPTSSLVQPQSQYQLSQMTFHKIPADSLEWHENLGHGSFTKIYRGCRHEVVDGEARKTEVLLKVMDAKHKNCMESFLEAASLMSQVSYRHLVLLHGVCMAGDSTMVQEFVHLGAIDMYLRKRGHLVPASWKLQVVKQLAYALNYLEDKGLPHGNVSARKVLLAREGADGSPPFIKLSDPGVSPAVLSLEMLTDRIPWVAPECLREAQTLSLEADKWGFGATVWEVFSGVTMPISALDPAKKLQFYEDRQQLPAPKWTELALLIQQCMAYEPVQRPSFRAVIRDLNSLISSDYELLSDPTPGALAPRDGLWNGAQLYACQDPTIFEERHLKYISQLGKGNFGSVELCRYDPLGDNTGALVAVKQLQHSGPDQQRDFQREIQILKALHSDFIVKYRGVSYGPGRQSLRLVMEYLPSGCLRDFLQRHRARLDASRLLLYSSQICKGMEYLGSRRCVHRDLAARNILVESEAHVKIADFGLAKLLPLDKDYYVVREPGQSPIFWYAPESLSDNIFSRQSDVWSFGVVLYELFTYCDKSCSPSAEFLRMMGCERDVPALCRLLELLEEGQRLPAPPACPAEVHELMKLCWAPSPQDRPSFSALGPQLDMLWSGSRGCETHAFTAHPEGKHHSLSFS
Description: (§1) Kinase assays can be performed by measurement of incorporation of γ-^33P ATP into immobilized myelin basic protein (MBP). High binding white 384 well plates (Greiner) are coated with MBP (Sigma # M-1891) by incubation of 60 μL well of 20 μg/mL MBP in Tris-buffered saline (TBS; 50 mM Tris pH 8.0, 138 mM NaCl, 2.7 mM KCl) for 24 h at 4° C. Plates are washed 3× with 100 μL TBS. Kinase reactions are carried out in a total volume of 34 μL in kinase buffer (according to the need to make, for example, 5 mM Hepes pH 7.6, 15 mM NaCl, 0.01% bovine gamma globulin (Sigma #1-5506), 10 mM MgCl2, 1 mM DTT, 0.02% TritonX-100). Compound dilutions are performed in DMSO and added to assay wells to a final DMSO concentration of 1%. Each data point is measured in duplicate, and at least two duplicate assays are performed for each individual compound determination. Enzyme is added to final concentrations of 10 nM or 20 nM, for example. A mixture of unlabeled ATP and γ-^33P ATP is added to start the reaction (2×10^6 cpm of γ-^33P ATP per well (3000 Ci/mmole) and 10 μM unlabeled ATP, typically. The reactions are carried out for 1 hour at room temperature with shaking. Plates are washed 7× with TBS, followed by the addition of 50 μL well scintillation fluid (Wallac). Plates are read using a Wallac Trilux counter. This is only one format of such assays; various other formats are possible, as known to one skilled in the art.
(§2) The above assay procedure can be used to determine the IC50 for inhibition and/or the inhibition constant, Ki. […] The IC50 value is estimated by preparing a 10 point curve using a ½ log dilution series (for example, a typical curve may be prepared using the following compound concentrations: 3 μM, 1 μM, 0.3 μM, 0.1 μM, 0.03 μM, 0.01 μM, 0.003 μM, 0.001 μM, 0.0003 μM and 0 μM).
(§3) (specific activity approx. 500 cpm/pmol, 10 μM or KM values). The reaction is initiated by the addition of the MgATP mix. After incubation for 40 minutes at room temperature, the reaction is stopped by the addition of 3% phosphoric acid solution. 10 μL of the reaction is then spotted onto a P30 filtermat and washed three times for 5 minutes in 75 mM phosphoric acid and once in methanol prior to drying and scintillation counting.
(§4) The kinase assays described herein were performed at Millipore UK Ltd, Dundee Technology Park, Dundee DD2 1SW, UK.

FLT4 (h) = molecular target: T2, FLT4 (h) (Homo sapiens, UniProt P35916); test: FLT4 (h) kinase assay; details: [γ-33P-ATP] 10 μM or KM values; cells tagged (Flt4); read-out: IC50 (Flt4), printed in the FLT3 (h) column
T2 construct: purchased Millipore UK Ltd (assays performed there as a service)
Description: as §1, §2
as §3, with “FLT4 (h) is incubated with 8 mM MOPS pH 7.0, 0.2 mM EDTA, 50 μM […], 10 mM MgAcetate and [γ-^33P-ATP] (specific” for “(specific”
as §4

TYK2 (h) = molecular target: T3, TYK2 (h) (Homo sapiens, UniProt P29597); test: TYK2 (h) kinase assay; details: [γ-33P-ATP] 10 μM or KM values; 40 minutes at room temperature
T3 construct: purchased Millipore UK Ltd (assays performed there as a service)
Description: as §1, §2
as §3, with “TYK2 (h) is incubated with 8 mM MOPS pH 7.0, 0.2 mM EDTA, 250 μM […], 10 mM MgAcetate and [γ-^33P-ATP] (specific” for “(specific”
as §4

T3 sequence (P29597 whole entry): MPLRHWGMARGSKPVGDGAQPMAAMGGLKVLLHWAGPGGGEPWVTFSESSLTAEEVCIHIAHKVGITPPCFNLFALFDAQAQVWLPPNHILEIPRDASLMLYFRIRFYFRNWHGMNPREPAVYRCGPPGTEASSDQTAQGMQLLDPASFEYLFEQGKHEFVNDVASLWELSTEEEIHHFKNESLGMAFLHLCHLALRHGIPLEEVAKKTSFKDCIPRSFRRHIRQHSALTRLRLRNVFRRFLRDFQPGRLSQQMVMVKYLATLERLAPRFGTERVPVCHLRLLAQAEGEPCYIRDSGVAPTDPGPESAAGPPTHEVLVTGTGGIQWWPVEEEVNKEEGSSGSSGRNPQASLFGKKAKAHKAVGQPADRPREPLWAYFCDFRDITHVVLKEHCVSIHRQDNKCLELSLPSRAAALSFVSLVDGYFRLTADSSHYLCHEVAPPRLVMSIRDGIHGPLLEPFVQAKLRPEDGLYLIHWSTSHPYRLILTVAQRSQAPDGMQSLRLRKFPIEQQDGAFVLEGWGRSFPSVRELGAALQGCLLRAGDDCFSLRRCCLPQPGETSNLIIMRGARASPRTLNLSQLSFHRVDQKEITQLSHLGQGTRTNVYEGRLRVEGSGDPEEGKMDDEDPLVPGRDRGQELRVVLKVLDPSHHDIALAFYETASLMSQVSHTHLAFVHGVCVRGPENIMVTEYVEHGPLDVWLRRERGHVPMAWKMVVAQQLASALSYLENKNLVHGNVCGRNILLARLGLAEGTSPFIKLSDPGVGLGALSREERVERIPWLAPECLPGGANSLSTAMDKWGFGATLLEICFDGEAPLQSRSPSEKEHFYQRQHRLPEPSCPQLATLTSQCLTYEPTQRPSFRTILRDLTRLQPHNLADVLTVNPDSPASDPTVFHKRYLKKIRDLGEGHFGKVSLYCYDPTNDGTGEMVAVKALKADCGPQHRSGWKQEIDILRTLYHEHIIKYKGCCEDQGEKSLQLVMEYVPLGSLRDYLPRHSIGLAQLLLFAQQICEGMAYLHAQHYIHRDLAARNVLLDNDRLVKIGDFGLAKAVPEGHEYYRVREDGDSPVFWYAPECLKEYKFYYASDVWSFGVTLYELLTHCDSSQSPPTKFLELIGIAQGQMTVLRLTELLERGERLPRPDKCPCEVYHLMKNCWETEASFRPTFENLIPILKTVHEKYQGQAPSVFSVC
T2 sequence (P35916 25-1363): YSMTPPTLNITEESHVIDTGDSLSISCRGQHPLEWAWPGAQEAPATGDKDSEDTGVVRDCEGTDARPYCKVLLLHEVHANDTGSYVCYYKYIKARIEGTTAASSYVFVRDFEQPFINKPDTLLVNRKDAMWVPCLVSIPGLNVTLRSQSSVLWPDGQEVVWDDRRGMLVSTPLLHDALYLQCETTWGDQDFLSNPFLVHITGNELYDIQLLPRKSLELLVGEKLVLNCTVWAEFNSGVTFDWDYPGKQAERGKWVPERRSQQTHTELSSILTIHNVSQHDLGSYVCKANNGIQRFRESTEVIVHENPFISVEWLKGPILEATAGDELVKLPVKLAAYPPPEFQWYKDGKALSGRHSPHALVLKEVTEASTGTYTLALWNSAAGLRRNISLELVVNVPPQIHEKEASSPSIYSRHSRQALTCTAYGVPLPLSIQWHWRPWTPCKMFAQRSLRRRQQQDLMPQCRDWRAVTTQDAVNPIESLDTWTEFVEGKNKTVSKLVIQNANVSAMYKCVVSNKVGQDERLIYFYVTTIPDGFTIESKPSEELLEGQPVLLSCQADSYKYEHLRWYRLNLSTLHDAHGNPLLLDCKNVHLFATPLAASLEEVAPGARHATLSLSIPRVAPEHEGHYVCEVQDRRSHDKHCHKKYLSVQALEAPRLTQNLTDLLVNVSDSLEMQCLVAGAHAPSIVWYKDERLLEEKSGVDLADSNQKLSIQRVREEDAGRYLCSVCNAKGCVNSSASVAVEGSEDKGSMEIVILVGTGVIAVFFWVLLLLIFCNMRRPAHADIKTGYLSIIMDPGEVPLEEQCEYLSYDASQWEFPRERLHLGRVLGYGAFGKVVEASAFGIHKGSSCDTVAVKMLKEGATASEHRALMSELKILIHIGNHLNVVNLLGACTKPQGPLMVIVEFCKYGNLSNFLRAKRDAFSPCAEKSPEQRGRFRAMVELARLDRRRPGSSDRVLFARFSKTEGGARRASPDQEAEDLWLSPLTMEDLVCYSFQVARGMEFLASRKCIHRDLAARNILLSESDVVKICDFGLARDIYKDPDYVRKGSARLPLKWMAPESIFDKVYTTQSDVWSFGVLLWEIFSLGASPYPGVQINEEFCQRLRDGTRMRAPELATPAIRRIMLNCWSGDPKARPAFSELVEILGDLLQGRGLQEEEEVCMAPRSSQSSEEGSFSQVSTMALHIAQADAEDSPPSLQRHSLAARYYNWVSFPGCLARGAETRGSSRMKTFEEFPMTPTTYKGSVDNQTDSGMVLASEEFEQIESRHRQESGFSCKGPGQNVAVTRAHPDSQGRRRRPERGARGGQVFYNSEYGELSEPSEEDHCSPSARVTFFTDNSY

**Q.** With `CC(C)(O)Cc1nnc2cc(Nc3ncc(Cl)c(NC4CCN(c5ccc(C#N)nn5)CC4)n3)ccn12` [Example 75, 6-(4-((5-chloro-2-((3-(2-hydroxy-2-methylpropyl)-[1,2,4]triazolo[4,3-a]pyridin-7-yl)amino)pyrimidin-4-yl)amino)piperidin-1-yl)pyridazine-3-carbonitrile] as the compound, how does the IC50 (JAK3 (h)) read?
**A.** The IC50 was 202 nM.

**Q.** And the IC50 (FLT4 (h))?
**A.** The IC50 was 202 nM.

**Q.** `CC(C)(O)Cc1nnc2cc(Nc3ncc(Cl)c(NC4CCN(c5ccc(C#N)cn5)CC4)n3)ccn12` [Example 74, 6-(4-((5-chloro-2-((3-(2-hydroxy-2-methylpropyl)-[1,2,4]triazolo[4,3-a]pyridin-7-yl)amino)pyrimidin-4-yl)amino)piperidin-1-yl)nicotinonitrile] was tested. Which IC50 (JAK3 (h)) did it give?
**A.** The IC50 was 64 nM.

**Q.** And the IC50 (FLT4 (h))?
**A.** Its IC50 is 57 nM.

**Q.** Which IC50 (JAK3 (h)) does the source give for `N#Cc1ccc(N2CCC(Nc3nc(Nc4ccn5c(C(F)F)nnc5c4)ncc3Cl)CC2)nc1` [Example 30, 6-(4-((5-chloro-2-((3-(difluoromethyl)-[1,2,4]triazolo[4,3-a]pyridin-7-yl)amino)pyrimidin-4-yl)amino)piperidin-1-yl)nicotinonitrile] here?
**A.** Its IC50 is 127 nM.

**Q.** And the IC50 (TYK2 (h))?
**A.** Its IC50 is 4 nM.

**Q.** What does the source list for `CC(C)(O)Cc1nc2cc(Nc3ncc(Cl)c(NC4CCN(c5ccc(C#N)nn5)CC4)n3)ccn2n1` [Example 77, 6-(4-((5-chloro-2-((2-(2-hydroxy-2-methylpropyl)-[1,2,4]triazolo[1,5-a]pyridin-7-yl)amino)pyrimidin-4-yl)amino)piperidin-1-yl)pyridazine-3-carbonitrile]?
**A.** IC50 (JAK3 (h)): 353 nM; IC50 (TYK2 (h)): 9 nM; IC50 (FLT4 (h)): 166 nM

**Q.** `CC(O)Cn1cnc2cc(Nc3ncc(Cl)c(NC4CCN(c5ccc(C#N)cn5)CC4)n3)ccc21` (centres unmarked) [Example 61, 6-(4-((5-chloro-2-((1-(2-hydroxypropyl)-1H-benzo[d]imidazol-5-yl)amino)pyrimidin-4-yl)amino)piperidin-1-yl)nicotinonitrile] was tested. Which IC50 (JAK3 (h)) did it give?
**A.** The IC50 was 5 nM.

**Q.** And the IC50 (TYK2 (h))?
**A.** The IC50 was 0.9 nM.

**Q.** What about the IC50 (FLT4 (h)) of the same compound?
**A.** Its IC50 is 20 nM.

**Q.** With `CC(C)(O)c1nc2cc(Nc3ncc(Cl)c(NC4CCN(c5ccc(C#N)nn5)CC4)n3)ccn2n1` [Example 55, 6-(4-((5-chloro-2-((2-(2-hydroxypropan-2-yl)-[1,2,4]triazolo[1,5-a]pyridin-7-yl)amino)pyrimidin-4-yl)amino)piperidin-1-yl)pyridazine-3-carbonitrile] as the compound, how does the IC50 (JAK3 (h)) read?
**A.** Its IC50 is 291 nM.

**Q.** What about the IC50 (FLT4 (h)) of the same compound?
**A.** Its IC50 is 95 nM.

**Q.** What does the source list for `CC(C)(O)Cc1nc2cc(Nc3ncc(Cl)c(NC4CCN(c5ccc(C#N)cn5)CC4)n3)ccn2n1` [Example 78, 6-(4-((5-chloro-2-((2-(2-hydroxy-2-methylpropyl)-[1,2,4]triazolo[1,5-a]pyridin-7-yl)amino)pyrimidin-4-yl)amino)piperidin-1-yl)nicotinonitrile]?
**A.** IC50 (JAK3 (h)): 344 nM; IC50 (TYK2 (h)): 5 nM; IC50 (FLT4 (h)): 117 nM

**Q.** For `CC(C)(O)Cc1cn2cc(Nc3ncc(Cl)c(NC4CCN(c5ccc(C#N)cn5)CC4)n3)ccc2n1` [Example 73, 6-(4-((5-chloro-2-((2-(2-hydroxy-2-methylpropyl)imidazo[1,2-a]pyridin-6-yl)amino)pyrimidin-4-yl)amino)piperidin-1-yl)nicotinonitrile], which IC50 (JAK3 (h)) is on record?
**A.** Its IC50 is 112 nM.

**Q.** What about the IC50 (FLT4 (h)) of the same compound?
**A.** Its IC50 is 87 nM.

**Q.** For `CC(C)(O)Cc1nc2ccc(Nc3ncc(Cl)c(NC4CCN(c5ccc(C#N)cn5)CC4)n3)cn2n1` [Example 67, 6-(4-((5-chloro-2-((2-(2-hydroxy-2-methylpropyl)-[1,2,4]triazolo[1,5-a]pyridin-6-yl)amino)pyrimidin-4-yl)amino)piperidin-1-yl)nicotinonitrile], which IC50 (TYK2 (h)) is on record?
**A.** The IC50 was 8 nM.

**Q.** What about the IC50 (FLT4 (h)) of the same compound?
**A.** Its IC50 is 113 nM.

**Q.** Which results are given for `CC(C)(O)Cn1nnc2cc(Nc3ncc(Cl)c(NC4CCN(c5ccc(C#N)cn5)CC4)n3)ccc21` [Example 69, 6-(4-((5-chloro-2-((1-(2-hydroxy-2-methylpropyl)-1H-benzo[d][1,2,3]triazol-5-yl)amino)pyrimidin-4-yl)amino)piperidin-1-yl)nicotinonitrile]?
**A.** IC50 (JAK3 (h)): 5 nM; IC50 (TYK2 (h)): 0.7 nM; IC50 (FLT4 (h)): 15 nM

**Q.** With `Cc1nc2cc(Nc3ncc(Cl)c(NC4CCN(c5ccc(C#N)cn5)CC4)n3)ccn2n1` [Example 32, 6-(4-((5-chloro-2-((2-methyl-[1,2,4]triazolo[1,5-a]pyridin-7-yl)amino)pyrimidin-4-yl)amino)piperidin-1-yl)nicotinonitrile] as the compound, how does the IC50 (JAK3 (h)) read?
**A.** The IC50 was 60 nM.

**Q.** What about the IC50 (TYK2 (h)) of the same compound?
**A.** Its IC50 is 2 nM.
